Key:
HDAC6 human recombinant = target: T1, HDAC6 human recombinant (Homo sapiens, UniProt Q9UBN7); assay: Inhibition of HDAC6 activity (fluorimetric assay); assay type: biochemical; conditions: test concentrations 0.1, 1, 10, 100 and 1000 nM; 37° C., 60 minutes
T1 construct: purchased Calbiochem 382180
T1 sequence (Q9UBN7 1-1215): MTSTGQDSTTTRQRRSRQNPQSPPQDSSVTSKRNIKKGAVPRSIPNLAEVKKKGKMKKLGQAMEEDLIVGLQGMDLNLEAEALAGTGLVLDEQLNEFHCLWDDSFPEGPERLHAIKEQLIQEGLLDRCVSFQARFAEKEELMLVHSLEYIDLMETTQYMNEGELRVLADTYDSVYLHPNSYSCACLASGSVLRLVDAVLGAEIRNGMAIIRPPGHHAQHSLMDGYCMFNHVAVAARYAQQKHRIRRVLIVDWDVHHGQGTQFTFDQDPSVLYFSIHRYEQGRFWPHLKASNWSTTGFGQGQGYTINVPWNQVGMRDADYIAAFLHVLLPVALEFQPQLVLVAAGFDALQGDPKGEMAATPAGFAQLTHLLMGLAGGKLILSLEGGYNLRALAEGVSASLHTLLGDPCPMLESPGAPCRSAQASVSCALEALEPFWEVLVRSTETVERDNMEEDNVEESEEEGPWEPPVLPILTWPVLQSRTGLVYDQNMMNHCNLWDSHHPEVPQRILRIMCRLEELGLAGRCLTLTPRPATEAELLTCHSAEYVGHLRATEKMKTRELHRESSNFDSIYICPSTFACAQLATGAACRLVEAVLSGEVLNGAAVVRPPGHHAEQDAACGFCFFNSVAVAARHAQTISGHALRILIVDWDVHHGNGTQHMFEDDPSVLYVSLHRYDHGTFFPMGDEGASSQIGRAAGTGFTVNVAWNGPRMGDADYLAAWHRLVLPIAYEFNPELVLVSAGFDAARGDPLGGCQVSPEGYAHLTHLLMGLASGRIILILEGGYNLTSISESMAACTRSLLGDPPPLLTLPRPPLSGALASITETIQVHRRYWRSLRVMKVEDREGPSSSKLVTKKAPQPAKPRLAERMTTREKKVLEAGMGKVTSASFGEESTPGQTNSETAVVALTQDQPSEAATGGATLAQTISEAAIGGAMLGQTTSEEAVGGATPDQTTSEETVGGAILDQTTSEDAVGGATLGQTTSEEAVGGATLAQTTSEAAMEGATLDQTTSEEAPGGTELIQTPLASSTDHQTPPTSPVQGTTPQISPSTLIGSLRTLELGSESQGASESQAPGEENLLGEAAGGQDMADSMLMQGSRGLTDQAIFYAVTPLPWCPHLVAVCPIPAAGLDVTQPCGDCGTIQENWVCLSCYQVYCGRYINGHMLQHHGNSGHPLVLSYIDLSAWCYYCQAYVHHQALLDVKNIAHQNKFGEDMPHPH
Procedure, shortened: (§1)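 HDAC1 tested with the kit assay mixture at 100, 1000 and 10000 nM compound; recombinant human HDAC6 at 0.1, 1, 10, 100 and 1000 nM. Reaction ran 60 min at 37° C, then developer was added for 30 min at 37° C and fluorescence quantified.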

HDAC1 = target: T2, HDAC1 (Homo sapiens, UniProt Q13547); assay: Inhibition of HDAC1 activity (HDAC1 fluorimetric drug discovery assay kit); assay type: biochemical; conditions: test concentrations 100, 1000 and 10000 nM; 37° C., 60 minutes
T2 construct: purchased Enzolifesciences BML-AK511
T2 sequence (Q13547 whole entry): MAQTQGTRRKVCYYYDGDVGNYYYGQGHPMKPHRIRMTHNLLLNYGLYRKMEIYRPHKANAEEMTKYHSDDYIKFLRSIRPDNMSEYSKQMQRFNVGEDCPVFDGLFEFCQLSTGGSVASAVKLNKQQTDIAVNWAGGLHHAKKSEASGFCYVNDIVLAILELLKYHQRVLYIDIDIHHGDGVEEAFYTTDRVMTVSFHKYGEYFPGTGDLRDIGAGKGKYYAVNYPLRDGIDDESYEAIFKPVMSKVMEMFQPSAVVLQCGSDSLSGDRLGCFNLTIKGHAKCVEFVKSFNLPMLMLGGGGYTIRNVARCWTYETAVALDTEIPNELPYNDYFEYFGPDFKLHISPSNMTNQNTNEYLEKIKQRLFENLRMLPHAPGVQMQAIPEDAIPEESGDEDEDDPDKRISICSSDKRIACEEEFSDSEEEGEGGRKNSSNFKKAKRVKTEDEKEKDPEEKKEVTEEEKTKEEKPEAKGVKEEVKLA
Procedure, shortened: as §1

SMILES | IC50 (HDAC6 human recombinant) [nM] | IC50 (HDAC1) [nM]
O=C(NO)c1ccc(Cn2ccc3cc(-c4ccc(F)cc4)cnc32)cc1 [Compound 104, 4-((5-(4-fluorophenyl)-1H-pyrrolo[2,3-b]pyridin-1-yl)methyl)-N-hydroxybenzamide] | 0.7 | 1670
CC(C)N1CCN(c2ccnc3c2ccn3Cc2ccc(C(=O)NO)cc2)CC1 [Compound 225, N-hydroxy-4-((4-(4-isopropylpiperazin-1-yl)-1H-pyrrolo[2,3-b]pyridin-1-yl)methyl)benzamide] | 3 | 410
CC(C)(C)OC(=O)NC1CCN(c2cnc3c(ccn3Cc3ccc(C(=O)NO)cc3)c2)CC1 [Compound 809, tert-butyl (1-(1-(4-(hydroxycarbamoyl)benzyl)-1H-pyrrolo[2,3-b]pyridin-5-yl)piperidin-4-yl)carbamate] | 30 | 3720
CC(C)(C)OC(=O)N1CC=C(c2cnc3c(ccn3Cc3ccc(C(=O)NO)cc3)c2)CC1 [Compound 692, tert-butyl 4-(1-(4-(hydroxycarbamoyl)benzyl)-1H-pyrrolo[2,3-b]pyridin-5-yl)-5,6-dihydropyridine-1(2H)-carboxylate] | 8 | 3430
O=C(NO)c1ccc(Cn2ccc3cc(C4CCN(Cc5ccc(F)cc5)CC4)cnc32)cc1 [Compound 843, 4-((5-(1-(4-fluorobenzyl)piperidin-4-yl)-1H-pyrrolo[2,3-b]pyridin-1-yl)methyl)-N-hydroxybenzamide] | 14 | 770
Nc1cccc(-c2ccnc3c2ccn3Cc2ccc(C(=O)NO)cc2)c1 [Compound 722, 4-((4-(3-aminophenyl)-1H-pyrrolo[2,3-b]pyridin-1-yl)methyl)-N-hydroxybenzamide] | 3 | 270
COc1ccc(CN2CCC(c3cnc4c(ccn4Cc4ccc(C(=O)NO)cc4)c3)CC2)cc1 [Compound 830, N-hydroxy-4-((5-(1-(4-methoxybenzyl)piperidin-4-yl)-1H-pyrrolo[2,3-b]pyridin-1-yl)methyl)benzamide] | 13 | 1920
CC1CN(c2cnc3c(ccn3Cc3ccc(C(=O)NO)cc3)c2)CC(C)O1 (stereo not shown) [Compound 807, 4-((5-(2,6-dimethylmorpholino)-1H-pyrrolo[2,3-b]pyridin-1-yl)methyl)-N-hydroxybenzamide] | 10.4 | 390
O=C(NO)c1ccc(Cn2ccc3cc(C4CCN(Cc5ccccc5F)CC4)cnc32)cc1 [Compound 839, 4-((5-(1-(2-fluorobenzyl)piperidin-4-yl)-1H-pyrrolo[2,3-b]pyridin-1-yl)methyl)-N-hydroxybenzamide] | 17.5 | 1910
CC(C)(C)OC(=O)N1CCN(c2cnc3c(ccn3Cc3ccc(C(=O)NO)cc3)c2)CC1 [Compound 746, tert-butyl 4-(1-(4-(hydroxycarbamoyl)benzyl)-1H-pyrrolo[2,3-b]pyridine-5-yl)piperazine-1-carboxylate] | 22 | 1960
CCc1cnc(N2CCN(c3ccnc4c3ccn4Cc3ccc(C(=O)NO)cc3)CC2)nc1 [Compound 702, 4-((4-(4-(5-ethylpyrimidin-2-yl)piperazin-1-yl)-1H-pyrrolo[2,3-b]pyridin-1-yl)methyl)-N-hydroxybenzamide] | 16 | 1040
CC(C)(F)CN1CCN(Cc2ccc(-c3ccnc4c3ccn4Cc3ccc(C(=O)NO)cc3)cc2)CC1 [Compound 763, 4-((4-(4-((4-(2-fluoro-2-methylpropyl)piperazin-1-yl)methyl)phenyl)-1H-pyrrolo[2,3-b]pyridin-1-yl)methyl)-N-hydroxybenzamide] | 300 | 4200
O=C(NO)c1ccc(Cn2ccc3c(N4CCN(Cc5ccccc5)CC4)ccnc32)cc1 [Compound 704, 4-((4-(4-benzylpiperazin-1-yl)-1H-pyrrolo[2,3-b]pyridin-1-yl)methyl)-N-hydroxybenzamide] | 9 | 620
O=C(NO)c1ccc(Cn2ccc3ccc(C4=CCOCC4)nc32)cc1 [Compound 743, 4-((6-(3,6-dihydro-2H-pyran-4-yl)-1H-pyrrolo[2,3-b]pyridin-1-yl)methyl)-N-hydroxybenzamide] | 25 | 190
O=C(NO)c1ccc(Cn2ccc3c(N4CCN(Cc5ccc(C(F)(F)F)cc5)CC4)ccnc32)cc1 [Compound 706, N-hydroxy-4-((4-(4-(4-(trifluoromethyl)benzyl)piperazin-1-yl)-1H-pyrrolo[2,3-b]pyridin-1-yl)methyl)benzamide] | 30 | 2330

Continued, values first:

IC50 (HDAC6 human recombinant) [nM] | IC50 (HDAC1) [nM] | SMILES
5.8 | 780 | O=C(O)CN1CCC(c2ccnc3c2ccn3Cc2ccc(C(=O)NO)cc2)CC1 [Compound 917, 2-(4-(1-(4-(hydroxycarbamoyl)benzyl)-1H-pyrrolo[2,3-b]pyridin-4-yl)piperidin-1-yl)acetic acid]
3.2 | 610 | C[C@@H]1CN(c2cnc3c(ccn3Cc3ccc(C(=O)NO)cc3)c2)C[C@H](C)N1Cc1cccnc1 [Compound 1004, 4-((5-((3S,5R)-3,5-dimethyl-4-(pyridin-3-ylmethyl)piperazin-1-yl)-1H-pyrrolo[2,3-b]pyridin-1-yl)methyl)-N-hydroxybenzamide]
8.7 | 770 | CN1CCN(Cc2ccc(CN3CCC(c4cnc5c(ccn5Cc5ccc(C(=O)NO)cc5)c4)CC3)cc2)CC1 [Compound 877, N-hydroxy-4-((5-(1-(4-((4-methylpiperazin-1-yl)methyl)benzyl)piperidin-4-yl)-1H-pyrrolo[2,3-b]pyridin-1-yl)methyl)benzamide]
14 | 240 | COc1ccc(CN2CCC3(CCN(c4ccnc5c4ccn5Cc4ccc(C(=O)NO)cc4)CC3)C2)cc1 [Compound 1021, N-hydroxy-4-((4-(2-(4-methoxybenzyl)-2,8-diazaspiro[4.5]decan-8-yl)-1H-pyrrolo[2,3-b]pyridin-1-yl)methyl)benzamide]
5.8 | 70 | O=C(NO)c1ccc(Cn2ccc3c(N4CCC5(CCN(Cc6cccnc6)C5)CC4)ccnc32)cc1 [Compound 1022, N-hydroxy-4-((4-(2-(pyridin-3-ylmethyl)-2,8-diazaspiro[4.5]decan-8-yl)-1H-pyrrolo[2,3-b]pyridin-1-yl)methyl)benzamide]
2.5 | 120 | O=C(NO)c1ccc(Cn2ccc3c(C4CCN(C(=O)c5cccc(F)c5)CC4)ccnc32)cc1 [Compound 860, 4-((4-(1-(3-fluorobenzoyl)piperidin-4-yl)-1H-pyrrolo[2,3-b]pyridin-1-yl)methyl)-N-hydroxybenzamide]
165 | 6340 | O=C(NO)c1ccc(Cn2ccc3cc(C4CCN(Cc5ccc(C(F)(F)F)cc5)CC4)cnc32)cc1 [Compound 872, N-hydroxy-4-((5-(1-(4-(trifluoromethyl)benzyl)piperidin-4-yl)-1H-pyrrolo[2,3-b]pyridin-1-yl)methyl)benzamide]
1.24 | 640 | O=C(NO)c1ccc(Cn2ccc3cc(N4CCC5(CC4)CN(Cc4ccccn4)C5)cnc32)cc1 [Compound 1126, N-hydroxy-4-((5-(2-(pyridin-2-ylmethyl)-2,7-diazaspiro[3.5]nonan-7-yl)-1H-pyrrolo[2,3-b]pyridin-1-yl)methyl)benzamide]
